Converted amounts (≈) assume the structure as drawn. The source made the active and inactive calls. The rule behind the calls is not given here.
Columns and labels:
[1] = Resistance index, ratio of EC50 for wild type Hepatitis B virus to EC50 for Hepatitis B virus harboring A181T transfected in human HepG2 cells measured after 6 days by qPCR analysis; format: functional; details: time 6 day
[2] = Resistance index, ratio of EC50 for wild type Hepatitis B virus to EC50 for Hepatitis B virus harboring A181V transfected in human HepG2 cells measured after 6 days by qPCR analysis; format: functional; details: time 6 day
[3] = Resistance index, ratio of EC50 for wild type Hepatitis B virus to EC50 for Hepatitis B virus harboring N236T transfected in human HepG2 cells measured after 6 days by qPCR analysis; format: functional; details: time 6 day
[4] = Cmax in C57BL/6 mouse plasma at 5 mg/kg, po administered as single dose measured upto 24 hrs by LC-MS/MS analysis; format: ADME, organism-based; set-up: dose 5 mg/kg, time < 24 hrs, route po
[5] = Cytotoxicity against human HepDE19 cells assessed as reduction in cell viability measured after 5 days by CCK-8 method; format: functional; details: HepDE19, 120 h, time 5 day
[6] = Metabolic stability in mouse liver microsomes assessed as clearance at 1 uM preincubated for 10 mins and measured upto 30 mins in presence of NADPH generating system by LC-MS/MS analysis; format: ADME, Microsome; details: time < 40 min
[7] = Metabolic stability in human liver microsomes assessed as clearance at 1 uM preincubated for 10 mins and measured upto 30 mins in presence of NADPH generating system by LC-MS/MS analysis; format: ADME, Microsome; details: time < 40 min
[8] = Volume of distribution at steady state in C57BL/6 mouse plasma at 2 mg/kg, iv administered as single dose measured upto 24 hrs by LC-MS/MS analysis; format: ADME, organism-based; details: read-out: Vdss
[9] = Selectivity index, ratio of CC50 for human HepDE19 cells assessed as reduction in cell viability to EC50 for HBV infected in human HepG2.2.15 cells assessed as reduction in HBV DNA replication; format: toxicity, cell-based; details: HBV-infected HepG2.2.15 cells (EC50)
[10] = Clearance in C57BL/6 mouse plasma at 2 mg/kg, iv administered as single dose measured upto 24 hrs by LC-MS/MS analysis; format: ADME, organism-based
[11] = Half life in C57BL/6 mouse plasma at 2 mg/kg, iv administered as single dose measured upto 24 hrs by LC-MS/MS analysis; format: ADME, organism-based
[12] = Ratio of AUC (0 to infinity) in liver to plasma of C57BL/6 mouse liver at 5 mg/kg, po administered as single dose measured upto 24 hrs by LC-MS/MS analysis; format: ADME, organism-based; details: read-out: Ratio AUC
Hepatitis B virus [13] = assay: Antiviral activity against HBV infected in human HepG2.2.15 cells assessed as reduction in HBV DNA replication measured after 5 days by qPCR analysis; format: functional, organism-based; details: HepG2.2.15, 120 h
[14] = Oral bioavailability in C57BL/6 mouse plasma at 5 mg/kg administered as single dose measured upto 24 hrs by LC-MS/MS analysis; format: ADME, organism-based
[15] = AUC (0 to infinity) in C57BL/6 mouse plasma at 5 mg/kg, po administered as single dose measured upto 24 hrs by LC-MS/MS analysis; format: ADME, organism-based; set-up: time < 24 hrs, dose 5 mg/kg, route po
[16] = AUC (0 to infinity) in C57BL/6 mouse liver at 5 mg/kg, po administered as single dose measured upto 24 hrs by LC-MS/MS analysis; format: ADME, organism-based; set-up: time < 24 hrs, dose 5 mg/kg, route po
[17] = Plasma protein binding in mouse assessed as free fraction incubated for 5 hrs by LC-MS/MS analysis; format: ADME, cell-free
[18] = AUC (0 to infinity) in C57BL/6 mouse plasma at 2 mg/kg, iv administered as single dose measured upto 24 hrs by LC-MS/MS analysis; format: ADME, organism-based; set-up: dose 2 mg/kg, time < 24 hrs, route iv
[19] = Lyophilization solubility of the compound in phosphate buffer at pH 6.5 incubated for 1 hr under stirring condition and 2 hrs under shaking condition by HPLC-UV analysis; format: physicochemical
[20] = Resistance index, ratio of EC50 for wild type Hepatitis B virus to EC50 for Hepatitis B virus harboring A181T/N236T transfected in human HepG2 cells measured after 6 days by qPCR analysis; format: functional; details: time 6 day
[21] = Resistance index, ratio of EC50 for wild type Hepatitis B virus to EC50 for Hepatitis B virus harboring M204 V transfected in human HepG2 cells measured after 6 days by qPCR analysis; format: functional; details: time 6 day
[22] = Resistance index, ratio of EC50 for wild type Hepatitis B virus to EC50 for Hepatitis B virus harboring L180M/M204 V/S202G transfected in human HepG2 cells measured after 6 days by qPCR analysis; format: functional; details: time 6 day
Hepatitis B virus [23] = assay: Inhibition of HBV replication transfected in human HepG2.2.15 cells assessed as inhibition of encapsidated DNA formation in cell lysate incubated for 5 days by SDS-PAGE analysis; format: functional, organism-based; details: dose <= 10.0 µM, time 5.0 day
[24] = Resistance index, ratio of EC50 for wild type Hepatitis B virus to EC50 for Hepatitis B virus harboring L180M/M204 V/M250 V/[…] transfected in human HepG2 cells measured after 6 days by qPCR analysis; format: functional; details: time 6 day
[25] = Resistance index, ratio of EC50 for wild type Hepatitis B virus to EC50 for Hepatitis B virus harboring L180M/M204 V/A194T transfected in human HepG2 cells measured after 6 days by qPCR analysis; format: functional; details: time 6 day
Hepatitis B virus [26] = assay: Inhibition of HBV replication transfected in human HepG2.2.15 cells assessed as assessed as induction of total core protein degradation in cell lysate at upto 10 uM incubated for 5 days by SDS-PAGE analysis; format: functional, organism-based; details: time 5.0 day
[27] = Resistance index, ratio of EC50 for wild type Hepatitis B virus to EC50 for Hepatitis B virus harboring […] transfected in human HepG2 cells measured after 6 days by qPCR analysis; format: functional; details: time 6 day
[28] = Resistance index, ratio of EC50 for wild type Hepatitis B virus to EC50 for Hepatitis B virus harboring L180M/M204V transfected in human HepG2 cells measured after 6 days by qPCR analysis; format: functional; details: time 6 day
[29] = Resistance index, ratio of EC50 for wild type Hepatitis B virus to EC50 for Hepatitis B virus harboring A181V/N236T transfected in human HepG2 cells measured after 6 days by qPCR analysis; format: functional; details: time 6 day
Hepatitis B virus [30] = assay: Inhibition of HBV replication transfected in human HepG2.2.15 cells assessed as assessed as induction of capsid degradation in cell lysate at upto 10 uM incubated for 5 days by SDS-PAGE analysis; format: functional, organism-based; details: time 5.0 day
[31] = Resistance index, ratio of EC50 for wild type Hepatitis B virus to EC50 for Hepatitis B virus harboring L180M/M204 V/T184G/[…] transfected in human HepG2 cells measured after 6 days by qPCR analysis; format: functional; details: time 6 day
Hepatitis B virus [32] = assay: In vivo antiviral activity against AAV encapsidated HBV infected in C57BL/6 mouse model assessed as log reduction in serum HBV DNA level at 20 mg/kg, BID measured on day 4 by quantitative real-time PCR analysis; format: functional; details: time 4 day
Hepatitis B virus [33] = assay: In vivo antiviral activity against AAV encapsidated HBV infected in C57BL/6 mouse model assessed as log reduction in serum HBV DNA level at 20 mg/kg, BID measured on day 2 by quantitative real-time PCR analysis; format: functional; details: time 2 day
Hepatitis B virus [34] = assay: In vivo antiviral activity against AAV encapsidated HBV infected in C57BL/6 mouse model assessed as reduction in serum HBV DNA level at 20 mg/kg, BID measured on day 6 by quantitative real-time PCR analysis; format: functional, organism-based; details: time 6.0 day

| Compound | Ratio EC50 [1] | Ratio EC50 [2] | Ratio EC50 [3] | Cmax [4] | CC50 [5] | CLhep predicted at 1 µM [6] | CLhep predicted at 1 µM [7] | Vd [8] | selectivity ratio [9] | clearance [10] | half-life [11] | Kp at 24 h [12] | EC50 (Hepatitis B virus [13]) | bioavailability [14] | AUC(0-inf) [15] | AUC(0-inf) [16] | fraction unbound at 5 h [17] | AUC(0-inf) [18] | solubility at 3 h [19] | other results |
| --- | --- | --- | --- | --- | --- | --- | --- | --- | --- | --- | --- | --- | --- | --- | --- | --- | --- | --- | --- | --- |
| Nc1ncnc2c1ncn2CCOCP(=O)(O)O [ADEFOVIR] | 2.2 | 1.6 | 2.5 |  |  |  |  |  |  |  |  |  |  |  |  |  |  |  |  |  |
| C[C@H]1Cn2ncc(N3CCCC3=O)c2CN1C(=O)Nc1cc(F)c(F)c(F)c1 |  |  |  | 1130 ng/mL | > 100000 nM | 29 mL/min/kg | 6.5 mL/min/kg | 1 L/kg | > 2380 | 13.7 mL/min/kg | 1 h | 3.2 | 42 nM | 43% | 2640 ng·h/mL | 8550 ng·h/mL | 0.18 | 2440 ng·h/mL | 430 µg/mL (≈ 1090 µM) |  |
| C[C@H]1Cn2ncc(N3CCCC3=O)c2CN1C(=O)Nc1ccc(F)c(Cl)c1 | 1.6 | 2.1 | 1.4 |  | 94000 nM | 50 mL/min/kg | 11 mL/min/kg |  | 2600 |  |  |  | 36 nM |  |  |  |  |  | 330 µg/mL (≈ 842 µM) | Ratio EC50 [20]: 2.2; Ratio EC50 [21]: 1.8; Ratio EC50 [22]: 1.9; inhibition (Hepatitis B virus [23]): Dose-Dependent Effect; Ratio EC50 [24]: 2.4; Ratio EC50 [25]: 2.2; inhibition (Hepatitis B virus [26]): inactive; Ratio EC50 [27]: 1.9; Ratio EC50 [28]: 2.6; Ratio EC50 [29]: 2.2; inhibition (Hepatitis B virus [30]): inactive; Ratio EC50 [31]: 2.9 |
| C[C@H]1Cn2ncc(N3CCOCC3=O)c2CN1C(=O)Nc1ccc(F)c(Cl)c1 |  |  |  | 1330 ng/mL | > 100000 nM | 39 mL/min/kg | 7.1 mL/min/kg | 1.4 L/kg | > 3700 | 10 mL/min/kg | 2 h | 2.6 | 27 nM | 48% | 4180 ng·h/mL | 10900 ng·h/mL | 0.31 | 3520 ng·h/mL | 156 µg/mL (≈ 383 µM) | log(activity) (Hepatitis B virus [32]): 0.5; log(activity) (Hepatitis B virus [33]): 0.67; Activity (Hepatitis B virus [34]): inactive |

From ChEMBL document CHEMBL5370611, “Discovery of 4,5,6,7-Tetrahydropyrazolo[1.5-a]pyrizine Derivatives as Core Protein Allosteric Modulators (CpAMs) for the Inhibition of Hepatitis B Virus” (J Med Chem, 2023)
